Assay results published in US20120010229A1, “THERAPEUTIC REGIMENS FOR HEDGEHOG-ASSOCIATED CANCERS” (priority 2010, published 2012).

Columns and labels:
[1] = test system: human cell lines derived from patients with cancer; settings: pancreatic cancer, medulloblastoma, lung cancer, multiple myeloma, leukemia, lymphoma lines; cited from earlier work
[2] = test system: Smoothened bearing the A1 point mutation; assay: Shh pathway inhibition in Smo/Smo (SmoA1) mouse medulloblastoma; assay type: in vivo
From the text: Two mouse medulloblastoma models were considered for these studies. In the Smo/Smo model, the constitutively active Smoothened (SmoA1) transgene is driven by a fragment of the mouse NeuroD2 promoter (Hallahan et al., (2004) Cancer Research 64: 7794-7800). Over 90% of Smo/Smo mice develop subclinical, localized medulloblastomas by one month of age and they typically become symptomatic and moribund 3-5 months later (Hatton et al., (2008) Cancer Research 68: 1768-1776). In this model, Smoothened is activated by a W539L point mutation (SmoA1) in the seventh transmembrane domain (Xie et al. (1998) Nature 391: 90-92; Taipale et al., (2000) Nature 406:1005-1009). While this model is ideal for many pre-clinical medulloblastoma therapeutic trials, it was previously reported that the introduced SmoA1 point mutation reduced the affinity of cyclopamine for Smoothened in tissue culture cells (Taipale et al., (2000) Nature 406:1005-1009). Tests were performed to determine whether doses of IPI-926 that were effective in other mouse model studies were sufficient to block the Shh pathway in Smo/Smo mouse tumors. […] Therefore, a different medulloblastoma model was used.

[3] = test system: L3.6pl P-lucky liver metastasis; assay: L3.6pl liver metastasis model, Study #1; assay type: in vivo; settings: for H&E staining of liver, tumor cells or metastasis: day 21
Procedure: Cells: L3.6pl is a pancreatic cancer cell line that has been tagged with the bioluminescence marker, luciferase, and is known to form metastasis in the liver (pl—pancreas to liver). Cells were cultured in RPMI+10% FBS and harvested on the day of implant. A single cell suspension was prepared in PBS at a concentration of 10 million cells per 1 ml of PBS. These cells were kept at 4° C. until implantation.
(§1) Model Procedure: Animals were anesthetized and prepared for surgery. The animal's spleen was exposed and 100 μl (1 million cells) of the L3.6pl single cell suspension was injected directly in the spleen towards the splenic vein (intra splenic injection). Once the injection was complete, the splenic artery and splenic vein were ligated, the spleen was excised, and the animals' wounds were closed. Post-op care and analgesia was given for 4 consecutive days and animals were monitored for recovery.
Prior to the procedure listed above 40 animals were separated into 4 groups consisting of 10 animals each.
Animals in group 2 (Pre-Treatment), received IPI-926 every-other-day for 14 days, prior to the intra splenic injection procedure, continuing until the study end.
Animals in group 3 (Day-of-Treatment), received IPI-926 every-other-day beginning on the day of the intra splenic injection procedure, continuing until the study end.
Animals in group 4 (Post-Treatment), received IPI-926 every-other-day beginning 7 days after the intra splenic injection procedure, continuing until the study end.
(§2) Results Procedure: Animals were injected with 10 ml/kg of luciferin concentrated at […] via I.P. injection. This luciferin binds to the L3.6pl P-Lucky cells injected on day 0. Utilizing Calipers Xenogen© machine, this cell-luciferin association emits bioluminescence that can be read and quantified (total flux).
Results: The graphs in FIGS. 10A-10B represent the quantification, normalized on each day to the average of vehicle treated animals. This normalization was done using the formula: (1/(average flux of vehicle animals/average flux of group X (group being compared))).

[4] = test system: L3.6pl P-lucky liver metastasis; assay: L3.6pl liver metastasis model, Study #2; assay type: in vivo
Procedure: as §1
Prior to the procedure listed above 48 animals were separated into […].
Animals in group 2 (Day-of-Treatment), received IPI-926 every-other-day beginning on the day of the intra splenic injection procedure, continuing until the study end.
Animals in group 3 (Pre-Treatment Day −2), received IPI-926 every-other-day starting two days prior to the day of the intra splenic injection procedure, continuing until the study end.
Animals in group 4 (Pre-Treatment Day −7), received IPI-926 every-other-day starting seven days prior to the day of the intra splenic injection procedure, continuing until the study end.
Animals in group 5 (Pre-Treatment Day −14—treatment stopped on Day 0), received IPI-926 every-other-day starting fourteen days prior to the day of the intra splenic injection procedure and ending on the day of implant.
Animals in group 6 (Pre-Treatment Day −14), received IPI-926 every-other-day starting fourteen days prior to the day of the intra splenic injection procedure, continuing until the study end.
as §2, with “quantified.” for “quantified (total flux).”
Results: FIGS. 12A-12B represent the results from the quantification, normalized on each day to the average of vehicle treated animals. This normalization was done using the formula: (1/(average flux of vehicle animals/average flux of group X (group being compared))).

[5] = in vivo, cited from earlier work
L3.6pl xenografts = settings: with paclitaxel bonded to albumin (Abraxane)
Pgp/ABCB1 and BCRP = settings: mouse, not told
[6] = treatment from 14 days prior to implant

SMILES: CC1=C2C[C@H]3[C@@H](CC[C@@H]4C[C@H](NS(C)(=O)=O)CC[C@@]43C)[C@@H]2CC[C@@]2(C1)O[C@@H]1C[C@H](C)CN[C@H]1[C@H]2C [IPI-926]
- in vitro growth of human cancer cell lines [1]: inhibit in vitro growth
- proliferation or apoptosis ([2]; Smo/Smo mouse model): no detectable effect
- expression of Gli1 ([2]; Smo/Smo mouse tumors): unaffected
- reduction in flux (bioluminescence) below vehicle ([3]; IPI-926 every-other-day from 14 days prior to implant): 20-25 fold
- take or growth of metastasis within the liver ([3]; day of implant treatment (Day 0)): no detectable effect
- H&E staining of liver, tumor cells or metastasis ([3]; day of treated group): visible metastasis and tumors cells present
- survival rate vs vehicle ([3]; day of treatment group): survival rates similar to vehicle treated animals
- take or growth of metastasis within the liver ([3]; post implant treatment (Day 7)): no detectable effect
- H&E staining of liver, tumor cells or metastasis ([3]; post treated group): visible metastasis and tumors cells present
- survival rate vs vehicle ([3]; post treatment group): survival rates similar to vehicle treated animals
- H&E staining of liver, tumor cells or metastasis ([3]; pre-treatment animal): no detectable tumor cells or metastasis
- overall survival rate vs vehicle [3, 6]: doubles the overall survival rate
- take or growth of metastasis within the liver ([4]; 2 days of pre treatment): no effect
- overall survival vs vehicle ([4]; 7 days of pre-treatment): survival benefit
- overall survival vs vehicle ([4]; 14 days of pre-treatment then stopping): survival benefit
- reduction in luminescence below vehicle ([4]; 14 days prior to implant then stopping dosing, early time point): roughly 15 fold
- decrease in bioluminescence compared to vehicle ([4]; 14 days prior to implant then stopping dosing, latest time point): 5 fold
- take or growth of metastasis within the liver ([4]; day of implant treatment): no effect
- overall survival vs vehicle ([4]; pre-treatment beginning at day -2): limited survival benefits
- reduction in bioluminescence below vehicle ([4]; treatment from 7 days prior to implant): 10-15 fold
- increase of overall survival rate, factor [4, 6]: ≥ 2
- reduction in flux (bioluminescence) below vehicle ([4]; treatment from 14 days prior to implant, continued): 20-25 fold
- overall survival vs vehicle ([4]; treatment starting on the day of implant, day 0): no benefit
- oral bioavailability ([5]; po): orally bioavailable
- duration of action [5]: long duration of action
- plasma half-life [5]: long plasma half-life
- effect on therapeutic agent effect of Abraxane (L3.6pl xenografts): enhances the therapeutic agent effect
- Pgp protein expression (IHC) (Pgp/ABCB1 and BCRP): focal increases in Pgp
- expression level of BCRP (Western blot) (Pgp/ABCB1 and BCRP): not significantly increased
- expression level of Pgp (Western blot) (Pgp/ABCB1 and BCRP): not significantly increased
